# Results from publication PMC9146374, “Extra Virgin Olive Oil Secoiridoids Modulate the Metabolic Activity of Dacarbazine Pre-Treated and Treatment-Naive Melanoma Cells” (Molecules, 2022).
# Several values for one entry are separate records, joined by “and”; a condition that tells them apart may be missing. Equal entries are not always repeated. Where two headings read alike, the source gives them in different places.
# Legend:
# [1] = system: HaCaT immortalized keratinocytes; test: MTS assay of metabolic activity (cell viability), 48 h exposure, HaCaT cells; type: cell-based; settings: ± SEM, DTIC applied up to 1000 µM, italic values extrapolated; for IC50: Homo sapiens
# Protocol: (§1) Biological activity upon treatment with EVOO-PEs, DTIC, OCEIN, and OCAL was evaluated using an MTS assay in in vitro experimental models, including the A375 and A375M cancer cell lines and HaCaT immortalized cell line. […] Due to the fast cell growth rate, a longer incubation period or denser initial seeding caused the overgrowth of untreated cells. In comparison, a shorter incubation period or lower initial density caused the effect of the test substances to be more difficult to detect. Therefore, the experiments were performed within a 48-hour timeframe. In addition, to avoid the misinterpretation of the results, we checked whether the vehicle, which was DMSO for the test substances, had any effect on metabolic activity by exposing each cell type to 0.2 and 0.4% DMSO, i.e., to the highest final DMSO concentrations achieved with the highest final concentrations of test substances. […] Accordingly, the effects of the test substances were determined as relative biological activities (in terms of cell viability, i.e., cell survival) compared to the untreated cells (controls). The cells were treated with a series of dilutions made by diluting full strength (100%) EVOO-PE to concentrations of 0.025–0.400 % (v/v) of EVOO-PE in the medium.
# (§2) Cells were grown in complete cell culture media, consisting of RPMI 1640, 2 mmol/L glutamine, 10% heat-inactivated foetal bovine serum (FBS), penicillin (100 IU/mL; 1 IU 67.7 µg/mL), and streptomycin (100 µg/mL). Cultures were maintained in a moisturized atmosphere with 5% CO2 at 37 °C and 95% relative humidity. All experiments were performed on cells between passages 4 and 8. The biological activity of the three EVOO-Pes, DTIC, OCEIN, and OCAL, as well as biological activity of the three EVOO-PEs following 6 h pre-incubation with DTIC was determined using a CellTiter 96®AQueous One Solution Cell Proliferation Assay. In short, 100 µL of cell cultures was seeded into 96-well tissue culture plates (A375 and HaCaT at a concentration of 2 × 10^3 cells/well, A375M at 7 × 10^3 cells/well). The next day, the medium was aspirated and media containing different concentrations of compounds were added to each well. All test compounds except DTIC were initially dissolved in DMSO and serially diluted in culture medium to obtain the final concentrations. DTIC was initially dissolved in culture medium, warmed to 37 °C, activated during 1 h exposure to light, and diluted in culture medium. The controls contained the test model cells and culture medium (containing either the complete medium or the DMSO in the highest final concentration, 0.2% and 0.4%) but no test compounds. The cells were incubated for 48 h before biological activity was measured. When investigating the combined effect, we exposed cells to DTIC for 6 h, removed the medium, and exposed the cells to medium containing EVOO-PE extracts for the next 24 h. In addition to the non-treated cells, the controls for experiments with DTIC pre-incubation were cells that had been exposed to DTIC for 6 h and cultured in a complete medium afterwards (without EVOO-PE). After incubation, media were aspirated, and 90 µL of serum-free medium containing MTS was added, according to the manufacturer’s instructions. After 1.5 h of incubation in the dark, the absorbance was measured at a wavelength of 490 nm using a microplate reader, Victor2-1420 Multilabel Counter (PerkinElmer, Yokohama, Japan). A negative control (medium without cells) was used as a blank. All experiments were performed in hexaplicate.
# (§3) The GraphPad Prism software version 9.0.0 for Windows (GraphPad Software, San Diego, CA, USA), was used for the determination of inhibitory concentration as well as for statistical analysis. The normality of the data distribution was accessed using Kolmogorov–Smirnov and Shapiro–Wilk tests. The IC60 and IC50 values (concentrations that reduced cell growth to 60% or 50% of the initial value, respectively) were determined using a nonlinear regression curve fit. […]
# A375 cells = settings: cited from earlier work; for IC50: homemade isolated OCAL purified to 95%
# [2] = system: A375M metastatic melanoma cell line; test: MTS assay of metabolic activity (cell viability), 48 h exposure, A375M cells; type: cell-based, human; settings: for effect on A375M cells: Figure S5b
# Protocol: as §1
# as §2, with “The controls contained the test model cells and culture medium (containing either the complete medium or the DMSO in the highest final concentration, 0.2% and 0.4%) but no test compounds.” left out, “When investigating the combined effect, we exposed cells to DTIC for 6 h, removed the medium, and exposed the cells to medium containing EVOO-PE extracts for the next 24 h. In addition to the non-treated cells, the controls for experiments with DTIC pre-incubation were cells that had been exposed to DTIC for 6 h and cultured in a complete medium afterwards (without EVOO-PE). After incubation, media were aspirated, and 90 µL of serum-free medium containing MTS was added, according to the manufacturer’s instructions.” left out, “A negative control (medium without cells) was used as a blank. All experiments were performed in hexaplicate.” left out
# A375 melanoma cell line = test: MTS assay of metabolic activity (cell viability), 48 h exposure, A375 cells; type: cell-based, human; settings: for IC60 / IC50: A375, 48 h, MTS, ± SEM; for IC60: concentration decreasing biological activity to 60%
# Protocol: as §1, §2, §3
# 501Mel melanoma cells = system: 501Mel melanoma cells; parameters: method as in earlier work; settings: ref 22 (Carpi et al.); read-out: IC50 of OCEIN on 501Mel melanoma cells; cited from earlier work
SMILES,IC50 [1] [µM],IC60 [1] [µM],"viability compared to control (A375 cells; 60 µM OCAL (highest applied), cell line not given, ref 25 (Gu et al.))",IC50 (A375 cells; ref 24 (Fogli et al.)) [µM],IC50 (A375 cells; ref 25 (Gu et al.)) [µM],effect on A375M cells [2],IC60 (A375 melanoma cell line),IC50 (A375 melanoma cell line) [µM],"IC50 (A375 melanoma cell line; Homo sapiens, A-375, 48 h) [µM]","viability at 60 µM (A375 melanoma cell line; Homo sapiens, A-375, 60 µM OCAL, cell line not given, read-out: viability compared to control) [%]","IC60 ([2]; A375M, ± SEM, DTIC applied up to 1000 µM, interpret with caution) [µM]","IC50 ([2]; Homo sapiens, A375M, ± SEM, DTIC applied up to 1000 µM, interpret with caution) [µM]",IC50 (501Mel melanoma cells) [µM]
"C/C=C(/C=O)[C@@H](CC=O)CC(=O)OCCc1ccc(O)cc1 [OCAL, oleocanthal]",130 ± 3.21,112.827 ± 2.904,~ 80%,13.6,~20,failed to provoke any effect,58.488 µM and 58.488 ± 1.836 µM,67.5 ± 1.86,67,~80,,,
"CN(C)/N=N/c1[nH]cnc1C(N)=O [DTIC, dacarbazine]",> 1000,1137 ± 93.752,,,,,214.358 ± 13.449 µM,,362,,709.780 ± 99.634,872 ± 62.2,
"CC=C(C=O)C(CC=O)CC(=O)OCCc1ccc(O)c(O)c1 (centres unmarked) [OCEIN, oleacein]",114 ± 2.3,103.061 ± 2.086,,,,failed to provoke any effect,101.052 µM and 101.052 ± 4.610 µM,113 ± 4.92,112,,,,82
